Test: recombinant UMI read abundance after kanamycin selection (control-corrected) (log10(CPM+1)); higher = more efficient recombination; extreme values may be limits of the assay; sequences stand for … in AGTGCAGAGAAAATCGGCCAGTTTTCTCTGCCTGCAGTCCGCATGCCGTGGGACCCCTTGGGTTCTAACCTGTTGCCTAGATTTATGCAGCGGACTGCCTTTCTCCCAAAGTGATAAACCGG…AGGTTGGTTTCACT; site = the 11-nt donor
Summary of the method: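 Each donor and donor-binding-loop pair was tracked by a 12-nt UMI on a plasmid carrying a promoterless kanamycin gene. With a second plasmid supplying a fixed target and T7-inducible IS621 bridge recombinase, the pool was plated in Escherichia coli on IPTG (0.07 mM) plus kanamycin or unselected. Sequencing of recombinant UMIs across the donor–target junction gave counts expressed as log10(CPM+1) after replicate averaging and control-derived scaling.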
In the case of “TTCACCGCATGGACCGGTTTTCCCGGTAATCCGTATTTGCG (site TCCACCGCTCG)”, the “recombinant UMI read abundance (log10)” value is reported as 0.017.
With “TTCACCGCATGGACCGGTTTTCCCGGTAATCCGTATTTGCG (site TGCACCGCTCG)” the “recombinant UMI read abundance (log10)” value was 0.0109.
For “TTCACCGCATGGACCGGTTTTCCCGGTAATCCGTATTTGCG (site TTCACCGCTCG)”, the “recombinant UMI read abundance (log10)” value was 0.0246.
In the case of “TTCACCTCATGGACCGGTTTTCCCGGTAATCCGTATTTGGT (site TTCACCTCTAC)”, the “recombinant UMI read abundance (log10)” value is reported as 0.
With “TTCACTACATGGACCGGTTTTCCCGGTAATCCGTATTTGAG (site TTCACTACTCT)” the “recombinant UMI read abundance (log10)” value was 0.00204.
For “TTCACTCCATGGACCGGTTTTCCCGGTAATCCGTATTTGAG (site TTCACTCCTCT)”, the “recombinant UMI read abundance (log10)” value was 0.
With “TTCATTGCATGGACCGGTTTTCCCGGTAATCCGTATTTGAA (site TTCATTGCTTT)” the “recombinant UMI read abundance (log10)” value was 0.
With “TTCCACCCATGGACCGGTTTTCCCGGTAATCCGTATTTGAC (site TTCCACCCTGT)” the “recombinant UMI read abundance (log10)” value was 0.
For “TTCCCTTCATGGACCGGTTTTCCCGGTAATCCGTATTTGCA (site TTCCCTTCTTG)”, the “recombinant UMI read abundance (log10)” value was 0.
For “TTCCGCTCATGGACCGGTTTTCCCGGTAATCCGTATTTGTG (site TTCCGCTCTCA)”, the “recombinant UMI read abundance (log10)” value was 0.
In the case of “TTCCTTTCATGGACCGGTTTTCCCGGTAATCCGTATTTGAT (site TTCCTTTCTAT)”, the “recombinant UMI read abundance (log10)” value is reported as 0.
For “TTCGACCCATGGACCGGTTTTCCCGGTAATCCGTATTTGGC (site TTCGACCCTGC)”, the “recombinant UMI read abundance (log10)” value was 0.
With “TTCGACTCATGGACCGGTTTTCCCGGTAATCCGTATTTGAC (site TTCGACTCTGT)” the “recombinant UMI read abundance (log10)” value was 1.03.
With “TTCGACTCATGGACCGGTTTTCCCGGTAATCCGTATTTGTT (site TTCGACTCTAA)” the “recombinant UMI read abundance (log10)” value was 1.01.
In the case of “TTCGCGCCATGGACCGGTTTTCCCGGTAATCCGTATTTGTA (site TTCGCGCCTTA)”, the “recombinant UMI read abundance (log10)” value is reported as 0.00689.
With “TTCGCTGCATGGACCGGTTTTCCCGGTAATCCGTATTTGGG (site TTCGCTGCTCC)” the “recombinant UMI read abundance (log10)” value was 0.00922.
In the case of “TTCGGTGCATGGACCGGTTTTCCCGGTAATCCGTATTTGCC (site TTCGGTGCTGG)”, the “recombinant UMI read abundance (log10)” value is reported as 0.
For “TTCGGTTCATGGACCGGTTTTCCCGGTAATCCGTATTTGAC (site TTCGGTTCTGT)”, the “recombinant UMI read abundance (log10)” value was 0.
In the case of “TTCGGTTCATGGACCGGTTTTCCCGGTAATCCGTATTTGGA (site TTCGGTTCTTC)”, the “recombinant UMI read abundance (log10)” value is reported as 0.
In the case of “TTCTAAACATGGACCGGTTTTCCCGGTAATCCGTATTTGCA (site TTCTAAACTTG)”, the “recombinant UMI read abundance (log10)” value is reported as 2.65.
With “TTCTATTCATGGACCGGTTTTCCCGGTAATCCGTATTTGCT (site TTCTATTCTAG)” the “recombinant UMI read abundance (log10)” value was 0.
For “TTCTCAGCATGGACCGGTTTTCCCGGTAATCCGTATTTGAG (site TTCTCAGCTCT)”, the “recombinant UMI read abundance (log10)” value was 0.00607.
For “TTCTCTCCATGGACCGGTTTTCCCGGTAATCCGTATTTGAA (site TTCTCTCCTTT)”, the “recombinant UMI read abundance (log10)” value was 0.019.
In the case of “TTCTTGACATGGACCGGTTTTCCCGGTAATCCGTATTTGTG (site TTCTTGACTCA)”, the “recombinant UMI read abundance (log10)” value is reported as 0.0069.
In the case of “TTGAATCCATGGACCGGTTTTCCCGGTAATCCGTATTTGGA (site TTGAATCCTTC)”, the “recombinant UMI read abundance (log10)” value is reported as 0.123.
In the case of “TTGACCCCATGGACCGGTTTTCCCGGTAATCCGTATTTGAT (site TTGACCCCTAT)”, the “recombinant UMI read abundance (log10)” value is reported as 0.347.
In the case of “TTGACGTCATGGACCGGTTTTCCCGGTAATCCGTATTTGTT (site TTGACGTCTAA)”, the “recombinant UMI read abundance (log10)” value is reported as 0.101.
For “TTGAGAACATGGACCGGTTTTCCCGGTAATCCGTATTTGAC (site TTGAGAACTGT)”, the “recombinant UMI read abundance (log10)” value was 0.447.
With “TTGAGAACATGGACCGGTTTTCCCGGTAATCCGTATTTGCC (site TTGAGAACTGG)” the “recombinant UMI read abundance (log10)” value was 1.36.
With “TTGATCTCATGGACCGGTTTTCCCGGTAATCCGTATTTGCG (site TTGATCTCTCG)” the “recombinant UMI read abundance (log10)” value was 1.95.
In the case of “TTGCAGCCATGGACCGGTTTTCCCGGTAATCCGTATTTGCT (site TTGCAGCCTAG)”, the “recombinant UMI read abundance (log10)” value is reported as 0.0502.
For “TTGCATGCATGGACCGGTTTTCCCGGTAATCCGTATTTGCA (site TTGCATGCTTG)”, the “recombinant UMI read abundance (log10)” value was 0.
With “TTGCCGGCATGGACCGGTTTTCCCGGTAATCCGTATTTGGC (site TAGCCGGCTGC)” the “recombinant UMI read abundance (log10)” value was 0.00655.
With “TTGCCGGCATGGACCGGTTTTCCCGGTAATCCGTATTTGGC (site TCGCCGGCTGC)” the “recombinant UMI read abundance (log10)” value was 0.
In the case of “TTGCCGGCATGGACCGGTTTTCCCGGTAATCCGTATTTGGC (site TGGCCGGCTGC)”, the “recombinant UMI read abundance (log10)” value is reported as 0.
In the case of “TTGCCGGCATGGACCGGTTTTCCCGGTAATCCGTATTTGGC (site TTGCCGGCTGC)”, the “recombinant UMI read abundance (log10)” value is reported as 0.
In the case of “TTGCCGTCATGGACCGGTTTTCCCGGTAATCCGTATTTGGC (site TTGCCGTCTGC)”, the “recombinant UMI read abundance (log10)” value is reported as 0.
In the case of “TTGCTAGCATGGACCGGTTTTCCCGGTAATCCGTATTTGAA (site TAGCTAGCTTT)”, the “recombinant UMI read abundance (log10)” value is reported as 0.016.
With “TTGCTAGCATGGACCGGTTTTCCCGGTAATCCGTATTTGAA (site TCGCTAGCTTT)” the “recombinant UMI read abundance (log10)” value was 0.0147.
For “TTGCTAGCATGGACCGGTTTTCCCGGTAATCCGTATTTGAA (site TGGCTAGCTTT)”, the “recombinant UMI read abundance (log10)” value was 0.0255.
For “TTGCTAGCATGGACCGGTTTTCCCGGTAATCCGTATTTGAA (site TTGCTAGCTTT)”, the “recombinant UMI read abundance (log10)” value was 0.252.
In the case of “TTGCTGTCATGGACCGGTTTTCCCGGTAATCCGTATTTGAT (site TTGCTGTCTAT)”, the “recombinant UMI read abundance (log10)” value is reported as 0.00531.
In the case of “TTGGAATCATGGACCGGTTTTCCCGGTAATCCGTATTTGCA (site TTGGAATCTTG)”, the “recombinant UMI read abundance (log10)” value is reported as 2.76.
With “TTGGCACCATGGACCGGTTTTCCCGGTAATCCGTATTTGAG (site TTGGCACCTCT)” the “recombinant UMI read abundance (log10)” value was 0.0325.
With “TTGGCGGCATGGACCGGTTTTCCCGGTAATCCGTATTTGCT (site TTAGCGGCTAG)” the “recombinant UMI read abundance (log10)” value was 1.3.
For “TTGGCGGCATGGACCGGTTTTCCCGGTAATCCGTATTTGCT (site TTCGCGGCTAG)”, the “recombinant UMI read abundance (log10)” value was 0.
For “TTGGCGGCATGGACCGGTTTTCCCGGTAATCCGTATTTGCT (site TTGGCGGCTAG)”, the “recombinant UMI read abundance (log10)” value was 1.44.
With “TTGGCGGCATGGACCGGTTTTCCCGGTAATCCGTATTTGCT (site TTTGCGGCTAG)” the “recombinant UMI read abundance (log10)” value was 0.00953.
For “TTGGGTGCATGGACCGGTTTTCCCGGTAATCCGTATTTGAT (site TTGGGTGCTAT)”, the “recombinant UMI read abundance (log10)” value was 1.6.
In the case of “TTGGTTTCATGGACCGGTTTTCCCGGTAATCCGTATTTGTT (site TTGGTTTCTAA)”, the “recombinant UMI read abundance (log10)” value is reported as 0.417.
With “TTGTAGACATGGACCGGTTTTCCCGGTAATCCGTATTTGCA (site TTGTAGACTTG)” the “recombinant UMI read abundance (log10)” value was 1.87.
In the case of “TTGTCTACATGGACCGGTTTTCCCGGTAATCCGTATTTGCG (site TTGTCTACTCG)”, the “recombinant UMI read abundance (log10)” value is reported as 0.0108.
With “TTGTGACCATGGACCGGTTTTCCCGGTAATCCGTATTTGAT (site TTGTGACCTAT)” the “recombinant UMI read abundance (log10)” value was 0.00587.
In the case of “TTGTGAGCATGGACCGGTTTTCCCGGTAATCCGTATTTGGT (site TTGTGAGCTAC)”, the “recombinant UMI read abundance (log10)” value is reported as 0.701.
With “TTGTTCCCATGGACCGGTTTTCCCGGTAATCCGTATTTGTG (site TTGTTCCCTCA)” the “recombinant UMI read abundance (log10)” value was 0.187.
For “TTTAATTCATGGACCGGTTTTCCCGGTAATCCGTATTTGCA (site TTTAATTCTTG)”, the “recombinant UMI read abundance (log10)” value was 0.
In the case of “TTTAATTCATGGACCGGTTTTCCCGGTAATCCGTATTTGGG (site TTTAATTCTCC)”, the “recombinant UMI read abundance (log10)” value is reported as 1.33.

From the supplement of paper PMC11208160
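Further: IS621 bridge recombinase in Escherichia coli cells against a fixed T5 target plasmid.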
